Experimental data as given in patent US10738028B2, “Spiro three-membered ring, spiro five-membered ring peptide deformylase inhibitor and use thereof in antibacteria and anti-tumor” (priority 2016, dated 2020).
Converted amounts (≈) assume the structure as drawn.

How the values were obtained:
Assay type in all cases: cell-based
[1] = MIC in vitro anti-bacterial experiments, Gram-positive bacteria; settings: lowest MIC reached; read-out: minimum inhibitory concentration against Gram-positive bacteria
Text: 1. The invention adopts the two-fold agar dilution method recommended by the operating procedure of antimicrobial susceptibility testing set by American Clinical and Laboratory Standards Institute (CLSI) to determine the Minimum Inhibitory Concentration (MIC) of the test samples against the tested strains.

[2] = tested on: Enterococcus faecalis (EFA); assay: MIC, two-fold agar dilution (CLSI), clinical isolates
Procedure, shortened: (§1)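 Test samples were assayed by the CLSI-recommended two-fold agar dilution method, and the minimum inhibitory concentration against each tested strain was determined.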

[3] = tested on: methicillin-sensitive Staphylococcus aureus (MSSA); assay: as above
Procedure, shortened: as §1

[4] = tested on: Moraxella catarrhalis (BCA); assay: as above
Procedure, shortened: as §1

[5] = tested on: Escherichia coli (including ESBLs, non-ESBLs); assay: as above
Procedure, shortened: as §1

[6] = tested on: methicillin-resistant Staphylococcus epidermidis (MRSE); assay: as above
Procedure, shortened: as §1

[7] = tested on: Enterococcus faecium (EFM); assay: as above
Procedure, shortened: as §1

[8] = tested on: methicillin-sensitive Staphylococcus epidermidis (MSSE); assay: as above
Procedure, shortened: as §1

[9] = tested on: methicillin-resistant Staphylococcus aureus (MRSA); assay: as above
Procedure, shortened: as §1

[10] = tested on: Streptococcus pneoumoniae (SPN); assay: as above
Procedure, shortened: as §1

[11] = tested on: HCT-116 colorectal cancer cell line; assay: CCK-8 proliferation inhibition; settings: concentration of 30 μM, 72 hours, CCK-8
Procedure, shortened: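 HCT-116 cells, seeded at 2000 cells/well in McCoy's 5A with 10% newborn bovine serum, were cultured overnight at 37° C., 5% CO2, then exposed to compound dilutions in medium for 72 hours. Viability was read with 1:10 diluted CCK-8; controls received 1‰ DMSO.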

[12] = tested on: A549 lung cancer cell line; assay: CCK-8 proliferation inhibition; settings: Homo sapiens, A549, 72 h, concentration of 30 μM
Procedure, shortened: (§2)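 Plating at 2000 cells/well, then incubation overnight at 37° C. Next, a range of compound concentrations for 72 hours (control 1‰ DMSO). Finally, medium decanted and CCK-8 diluted 1:10 added.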

[13] = tested on: BEL-7402 liver cancer cell line; assay: CCK-8 proliferation inhibition; settings: concentration of 30 μM, 72 hours, 30 µM
Procedure, shortened: as §2

[14] = tested on: MGC-803 gastric cancer cell line; assay: CCK-8 proliferation inhibition; settings: concentration of 30 μM
Procedure, shortened: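 Cells were seeded at 2000 cells/well and cultured overnight at 37° C, 5% CO2, then exposed for 72 hours to compounds diluted from DMSO stocks. Controls received 1‰ DMSO. CCK-8 (1:10 diluted) replaced the medium. MGC-803 and Jurkat were grown in 1640, PC3 in F12, and MCF-7 in DMEM high glucose, each with 10% newborn bovine serum.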

## CC(C)(C)c1cc(NC(=O)[C@@H]2CC3(CC3)CN2C(=O)[C@H](CC2CCCC2)CN(O)C=O)no1 [Example 38]
[1]
  MIC: < 0.008 µg/mL
[2]; strain EFA 15-1
  MIC (anti-bacterial activity): 4 µg/mL (≈ 8.68 µM)
[2]; strain EFA 15-2
  MIC (anti-bacterial activity): 4 µg/mL (≈ 8.68 µM)
[2]; strain EFA 15-3
  MIC (anti-bacterial activity): 0.25 µg/mL (≈ 0.543 µM)
[2]; strain EFA 15-4
  MIC (anti-bacterial activity): 4 µg/mL (≈ 8.68 µM)
[2]; strain EFA 15-5
  MIC (anti-bacterial activity): 4 µg/mL (≈ 8.68 µM)
[2]; strain EFA 15-6
  MIC (anti-bacterial activity): 4 µg/mL (≈ 8.68 µM)
[2]; strain EFA 15-9
  MIC (anti-bacterial activity): 4 µg/mL (≈ 8.68 µM)
[3]; strain MSSA 15-3
  MIC (anti-bacterial activity): 0.25 µg/mL (≈ 0.543 µM)
[3]; strain MSSA 15-4
  MIC (anti-bacterial activity): 0.25 µg/mL (≈ 0.543 µM)
[3]; strain MSSA 15-5
  MIC (anti-bacterial activity): 0.125 µg/mL (≈ 0.271 µM)
[3]; strain MSSA 15-6
  MIC (anti-bacterial activity): 0.125 µg/mL (≈ 0.271 µM)
[4]; clinical isolate BCA 14-10
  Anti-bacterial activity (MIC), strain BCA 14-10: 0.25 µg/mL
[4]; strain BCA 14-1
  MIC (anti-bacterial activity): 0.25 µg/mL (≈ 0.543 µM)
[4]; strain BCA 14-4
  MIC (anti-bacterial activity): 1 µg/mL (≈ 2.17 µM)
[4]; strain BCA 14-5
  MIC (anti-bacterial activity): 0.5 µg/mL (≈ 1.09 µM)
[4]; strain BCA 14-6
  MIC (anti-bacterial activity): 1 µg/mL (≈ 2.17 µM)
[4]; strain BCA 14-7
  MIC (anti-bacterial activity): 0.25 µg/mL (≈ 0.543 µM)
[4]; strain BCA 14-8
  MIC (anti-bacterial activity): 0.25 µg/mL (≈ 0.543 µM)
[5]; strain ECO+ 15-1
  MIC (anti-bacterial activity): 16 µg/mL (≈ 34.7 µM)
[5]; strain ECO+ 15-2
  MIC (anti-bacterial activity): 32 µg/mL (≈ 69.5 µM)
[5]; strain ECO+ 15-3
  MIC (anti-bacterial activity): 16 µg/mL (≈ 34.7 µM)
[5]; strain ECO+ 15-4
  MIC (anti-bacterial activity): 16 µg/mL (≈ 34.7 µM)
[5]; strain ECO− 15-1
  MIC (anti-bacterial activity): 16 µg/mL (≈ 34.7 µM)
[5]; strain ECO− 15-2
  MIC (anti-bacterial activity): 32 µg/mL (≈ 69.5 µM)
[5]; strain ECO− 15-3
  MIC (anti-bacterial activity): 32 µg/mL (≈ 69.5 µM)
[5]; strain ECO− 15-4
  MIC (anti-bacterial activity): 32 µg/mL (≈ 69.5 µM)
[6]; strain MRSE 15-1
  MIC (anti-bacterial activity): 0.25 µg/mL (≈ 0.543 µM)
[6]; strain MRSE 15-2
  MIC (anti-bacterial activity): 0.25 µg/mL (≈ 0.543 µM)
[6]; strain MRSE 15-3
  MIC (anti-bacterial activity): 0.25 µg/mL (≈ 0.543 µM)
[6]; strain MRSE 15-7
  MIC (anti-bacterial activity): 0.25 µg/mL (≈ 0.543 µM)
[7]; strain EFM 15-1
  MIC (anti-bacterial activity): 0.25 µg/mL (≈ 0.543 µM)
[7]; strain EFM 15-2
  MIC (anti-bacterial activity): 0.25 µg/mL (≈ 0.543 µM)
[7]; strain EFM 15-3
  MIC (anti-bacterial activity): 0.25 µg/mL (≈ 0.543 µM)
[7]; strain EFM 15-4
  MIC (anti-bacterial activity): 0.5 µg/mL (≈ 1.09 µM)
[7]; strain EFM 15-5
  MIC (anti-bacterial activity): 0.25 µg/mL (≈ 0.543 µM)
[7]; strain EFM 15-6
  MIC (anti-bacterial activity): 0.5 µg/mL (≈ 1.09 µM)
[8]; strain MSSE 15-3
  MIC (anti-bacterial activity): 0.25 µg/mL (≈ 0.543 µM)
[8]; strain MSSE 15-4
  MIC (anti-bacterial activity): 0.25 µg/mL (≈ 0.543 µM)
[8]; strain MSSE 15-5
  MIC (anti-bacterial activity): 0.25 µg/mL (≈ 0.543 µM)
[8]; strain MSSE 15-6
  MIC (anti-bacterial activity): < 0.008 µg/mL
[9]; strain MRSA 15-1
  MIC (anti-bacterial activity): 0.125 µg/mL (≈ 0.271 µM)
[9]; strain MRSA 15-2
  MIC (anti-bacterial activity): 0.125 µg/mL (≈ 0.271 µM)
[9]; strain MRSA 15-3
  MIC (anti-bacterial activity): 0.125 µg/mL (≈ 0.271 µM)
[9]; strain MRSA 15-4
  MIC (anti-bacterial activity): 0.25 µg/mL (≈ 0.543 µM)
[10]; strain SPN 16-2
  MIC (anti-bacterial activity): 0.25 µg/mL (≈ 0.543 µM)
[10]; strain SPN 16-4
  MIC (anti-bacterial activity): 0.5 µg/mL (≈ 1.09 µM)
[11]; Homo sapiens, HCT-116, 72 h, read-out: HCT116 inhibition rate/%
  inhibition at 30 µM: > 50%
[11]; 30 µM
  HCT116 inhibition rate/%: 52%
[12]
  inhibition at 30 µM: 38%
[13]
  Inhibition of proliferation, Liver cancer BEL-7402: 75%
[14]; Homo sapiens, MGC-803, 72 h
  inhibition at 30 µM: > 50%
[14]; 72 hours, 30 µM
  Inhibition of proliferation, Gastric cancer MGC-803: 50%
